Where a name gives a salt, the structure may show the parent alone.
Target: T1, casein kinase 1 epsilon (CK1 epsilon) (Homo sapiens, UniProt P49674)
T1 construct: Invitrogen Corporation (as an alternative)
Experiment: Filter-plate assay of ATP-33P for CK1 epsilon inhibitors (phosphorylation of casein)
Assay type: biochemical
Details: casein substrate, ATP-33P with 10 μM cold ATP, 2 hours at ambient temperature
Protocol: The capacity of the compounds of the invention to inhibit the phosphorylation of casein by casein kinase 1 epsilon and delta may be evaluated according to the procedure described in US 2005/0131012.
Filter-Plate Assay of ATP-^33P for the Screening of CK1 Epsilon Inhibitors:
The effect of the compounds on inhibition of the phosphorylation of casein by the enzyme casein kinase 1 epsilon (CK1 epsilon) is measured, using a casein assay with filtration of ATP-^33P in vitro.
Casein kinase 1 epsilon (0.58 mg/ml) is obtained via fermentation and purification processes performed according to methods that are well known to those skilled in the art, or may also be obtained from Invitrogen Corporation™ (human CK1 epsilon).
The compounds are tested at five different concentrations so as to generate IC50 values, i.e. the concentration at which a compound is capable of inhibiting the enzymatic activity by 50%, or alternatively the percentage of inhibition at a concentration of 10 micromolar.
“U”-bottomed Falcon plates are prepared by placing 5 μL of solutions of the compounds according to the invention at concentrations of 10, 1, 0.1, 0.01 or 0.001 μM in various wells. The solutions of the compounds according to the invention at these various concentrations are prepared by diluting in a test buffer (50 mM Tris, pH 7.5, […], 2 mM DTT and 1 mM EGTA) a stock solution in DMSO at a concentration of 10 mM. Next, 5 μL of dephosphorylated casein are added to a final concentration of 0.2 μg/μL, 20 μl of CK1 epsilon to a final concentration of 3 ng/μl, and 20 μl of ATP-^33P to a final concentration of 0.02 μCi/μl mixed with cold ATP (10 μM final—approximately 2×10^6 CPM per well). The final total test volume per well is equal to 50 μl.
The “U”-bottomed Falcon® test plate mentioned above is vortexed, and then incubated at ambient temperature for 2 hours. After 2 hours, the reaction is stopped by adding an ice-cold solution of 65 μl of ATP (2 mM) prepared in test buffer.
100 μl of the reaction mixture are then transferred from the “U”-bottomed Falcon® plate into Millipore® MAPH filter plates, preimpregnated with 25 μl of ice-cold 100% TCA. […]
The plates are left to dry overnight at ambient temperature. […] The radiation emitted by each well is then measured for 2 minutes in a Packard® Topcount NXT scintillation counter, in which the values of CPM/well are measured.
The percentage inhibition of the capacity of the enzyme to phosphorylate the substrate (casein) is determined for each concentration of compound tested. These inhibition data expressed as percentages are used to calculate the IC50 value for each compound compared with the controls.
The kinetic studies determined the KM value for ATP as being 21 μM in this test system.

T1 sequence (P49674 whole entry): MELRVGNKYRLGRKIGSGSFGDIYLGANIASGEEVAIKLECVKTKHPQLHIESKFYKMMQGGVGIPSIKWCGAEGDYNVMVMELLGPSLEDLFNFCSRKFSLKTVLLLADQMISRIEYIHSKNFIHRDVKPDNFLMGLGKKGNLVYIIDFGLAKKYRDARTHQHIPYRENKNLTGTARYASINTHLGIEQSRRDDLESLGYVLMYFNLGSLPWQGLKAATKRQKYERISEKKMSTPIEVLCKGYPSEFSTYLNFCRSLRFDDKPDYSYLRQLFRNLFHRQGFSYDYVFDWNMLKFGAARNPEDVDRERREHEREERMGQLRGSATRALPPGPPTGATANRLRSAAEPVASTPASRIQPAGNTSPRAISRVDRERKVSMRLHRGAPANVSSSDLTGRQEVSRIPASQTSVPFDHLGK

| SMILES | IC50 |
| --- | --- |
| Cc1nc2ccc(N3C[C@@H](C)N[C@@H](C)C3)nn2c1-c1ccnc2[nH]ccc12 [Compound 3, 6-[(cis)-3,5-Dimethylpiperazin-1-yl]-2-methyl-3-(1H-pyrrolo[2,3-b]pyridin-4-yl)-imidazo[1,2-b]pyridazine] | 0.303 µM |

System: not given
Experiment: not given
Details: not given

| SMILES | melting point |
| --- | --- |
| Cc1cc(N2CCN(CCO)CC2)nn2c(-c3ccnc4[nH]ccc34)c(-c3cccc(F)c3)nc12 [Compound 12, 2-{4-[2-(3-Fluorophenyl)-8-methyl-3-(1H-pyrrolo[2,3-b]pyridin-4-yl)imidazo[1,2-b]pyridazin-6-yl]piperazin-1-yl}ethanol] | 201 to 203 °C |
| Cc1cc(N2CCNC(C)(C)C2)nn2c(-c3ccnc4[nH]ccc34)c(-c3cccc(F)c3)nc12 [Compound 9, 6-(3,3-Dimethylpiperazin-1-yl)-2-(3-fluorophenyl)-8-methyl-3-(1H-pyrrolo[2,3-b]pyridin-4-yl)imidazo[1,2-b]pyridazine] | 270 to 273 °C |
| Fc1ccc(-c2nc3ccc(N4CCN(Cc5ccccc5)CC4)nn3c2-c2ccnc3[nH]ccc23)cc1 [Compound 27, 6-(4-Benzylpiperazin-1-yl)-2-(4-fluorophenyl)-3-(1H-pyrrolo[2,3-b]pyridin-4-yl)imidazo[1,2-b]pyridazine] | 274 to 278 °C |
| Cc1cc(N2CCN(CCO)CC2)nn2c(-c3ccnc4[nH]ccc34)c(-c3ccc(F)cc3)nc12 [Compound 13, 2-{4-[2-(4-Fluorophenyl)-8-methyl-3-(1H-pyrrolo[2,3-b]pyridin-4-yl)imidazo[1,2-b]pyridazin-6-yl]piperazin-1-yl}ethanol] | 239 to 242 °C |
| Cc1cc(N2CCN(CC(C)(C)O)CC2)nn2c(-c3ccnc4[nH]ccc34)c(-c3ccc(F)cc3)nc12 [Compound 22, 1-{4-[2-(4-Fluorophenyl)-8-methyl-3-(1H-pyrrolo[2,3-b]pyridin-4-yl)imidazo[1,2-b]pyridazin-6-yl]piperazin-1-yl}-2-methylpropan-2-ol] | 265 to 268 °C |
| Cc1cc(N2CCN(C(C)C)CC2)nn2c(-c3ccnc4[nH]ccc34)c(-c3ccc(F)cc3)nc12 [Compound 15, 2-(4-Fluorophenyl)-6-(4-isopropylpiperazin-1-yl)-8-methyl-3-(1H-pyrrolo[2,3-b]pyridin-4-yl)imidazo[1,2-b]pyridazine] | 285 to 291 °C |
| Cc1cc(N2C[C@@H]3CCCN(C)[C@@H]3C2)nn2c(-c3ccnc4[nH]ccc34)c(-c3ccc(F)cc3)nc12 [Compound 33, 2-(4-Fluorophenyl)-8-methyl-6-((4aS,7aS)-1-methyloctahydro-6H-pyrrolo[3,4-b]pyridin-6-yl)-3-(1H-pyrrolo[2,3-b]pyridin-4-yl)imidazo[1,2-b]pyridazine] | > 260 °C |
| CC(C)(CO)N1CCN(c2ccc3nc(-c4ccc(F)cc4)c(-c4ccnc5[nH]ccc45)n3n2)CC1 [Compound 19, 2-{4-[2-(4-Fluorophenyl)-3-(1H-pyrrolo[2,3-b]pyridin-4-yl)imidazo[1,2-b]pyridazin-6-yl]piperazin-1-yl}-2-methylpropan-1-ol] | > 250 °C |
| Cc1cc(N2CCNC3(CCCC3)C2)nn2c(-c3ccnc4[nH]ccc34)c(-c3ccc(F)cc3)nc12 [Compound 18, 6-(6,9-Diazaspiro[4.5]dec-9-yl)-2-(4-fluorophenyl)-8-methyl-3-(1H-pyrrolo[2,3-b]pyridin-4-yl)imidazo[1,2-b]pyridazine] | 293 to 299 °C |
| Fc1ccc(-c2nc3ccc(N4CCN[C@H](c5ccccc5)C4)nn3c2-c2ccnc3[nH]ccc23)cc1 (as salt: HCl) [Compound 24, (R)-2-(4-Fluorophenyl)-6-[3-phenylpiperazin-1-yl]-3-(1H-pyrrolo[2,3-b]pyridin-4-yl)imidazo[1,2-b]pyridazine] | 215 °C (dec.) |
| CC(C)(O)CCN1CCN(c2ccc3nc(-c4ccc(F)cc4)c(-c4ccnc5[nH]ccc45)n3n2)CC1 [Compound 23, 4-{4-[2-(4-Fluorophenyl)-3-(1H-pyrrolo[2,3-b]pyridin-4-yl)imidazo[1,2-b]pyridazin-6-yl]piperazin-1-yl}-2-methylbutan-2-ol] | 73 to 75 °C |
| CN1C[C@@H]2C[C@H]1CN2c1ccc2nc(-c3ccc(F)cc3)c(-c3ccnc4[nH]ccc34)n2n1 [Compound 34, 2-(4-Fluorophenyl)-6-((1S,4S)-5-methyl-2,5-diazabicyclo[2.2.1]hept-2-yl)-3-(1H-pyrrolo[2,3-b]pyridin-4-yl)imidazo[1,2-b]pyridazine] | 148 to 168 °C |
| Cc1cc(N2CCN(CC(C)(C)O)CC2)nn2c(-c3ccnc4[nH]ccc34)c(-c3cccc(F)c3)nc12 [Compound 21, 1-{4-[2-(3-Fluorophenyl)-8-methyl-3-(1H-pyrrolo[2,3-b]pyridin-4-yl)imidazo[1,2-b]pyridazin-6-yl]piperazin-1-yl}-2-methylpropan-2-ol] | > 270 °C |
| Cc1cc(N2C[C@H]3CCCN(C)[C@H]3C2)nn2c(-c3ccnc4[nH]ccc34)c(-c3ccc(F)cc3)nc12 [Compound 32, 2-(4-Fluorophenyl)-8-methyl-6-((4aR,7aR)-1-methyloctahydro-6H-pyrrolo[3,4-b]pyridin-6-yl)-3-(1H-pyrrolo[2,3-b]pyridin-4-yl)imidazo[1,2-b]pyridazine] | > 260 °C |
| Cc1cc(N2C[C@H]3CN(CCO)C[C@H]3C2)nn2c(-c3ccnc4[nH]ccc34)c(-c3ccc(F)cc3)nc12 [Compound 31, (cis)-2-{5-[2-(4-Fluorophenyl)-8-methyl-3-(1H-pyrrolo[2,3-b]pyridin-4-yl)imidazo[1,2-b]pyridazin-6-yl]hexahydropyrrolo[3,4-c]pyrrol-2(1H)-yl}ethanol] | 271 to 275 °C |
| CC(C)N1CCN(c2ccc3nc(-c4ccc(F)cc4)c(-c4ccnc5[nH]ccc45)n3n2)CC1 [Compound 14, 2-(4-Fluorophenyl)-6-(4-isopropylpiperazin-1-yl)-3-(1H-pyrrolo[2,3-b]pyridin-4-yl)imidazo[1,2-b]pyridazine] | 271 to 273 °C |
| Cc1cc(N2CCNC(c3ccccc3)C2)nn2c(-c3ccnc4[nH]ccc34)c(-c3ccc(F)cc3)nc12 (centres unmarked) [Compound 26, 2-(4-Fluorophenyl)-8-methyl-6-[3-phenylpiperazin-1-yl]-3-(1H-pyrrolo[2,3-b]pyridin-4-yl)imidazo[1,2-b]pyridazine] | 253 to 257 °C |
| CN1C[C@@H]2CN(c3ccc4nc(-c5ccc(F)cc5)c(-c5ccnc6[nH]ccc56)n4n3)C[C@@H]2C1 [Compound 28, (cis)-2-(4-Fluorophenyl)-6-(5-methylhexahydropyrrolo[3,4-c]pyrrol-2(1H)-yl)-3-(1H-pyrrolo[2,3-b]pyridin-4-yl)imidazo[1,2-b]pyridazine] | 238 to 239 °C |
| OCCN1C[C@@H]2CN(c3ccc4nc(-c5ccc(F)cc5)c(-c5ccnc6[nH]ccc56)n4n3)C[C@@H]2C1 [Compound 30, (cis)-2-{5-[2-(4-Fluorophenyl)-3-(1H-pyrrolo[2,3-b]pyridin-4-yl)imidazo[1,2-b]pyridazin-6-yl]hexahydropyrrolo[3,4-c]pyrrol-2(1H)-yl}ethanol] | 175 to 180 °C |
| Fc1ccc(-c2nc3ccc(N4CCN[C@@H](c5ccccc5)C4)nn3c2-c2ccnc3[nH]ccc23)cc1 (as salt: HCl) [Compound 25, (S)-2-(4-Fluorophenyl)-6-[3-phenylpiperazin-1-yl]-3-(1H-pyrrolo[2,3-b]pyridin-4-yl)imidazo[1,2-b]pyridazine] | 215 °C (dec.) |
| Cc1cc(N2CCNC(C)(C)C2)nn2c(-c3ccnc4[nH]ccc34)c(-c3ccc(F)cc3)nc12 [Compound 10, 6-(3,3-Dimethylpiperazin-1-yl)-2-(4-fluorophenyl)-8-methyl-3-(1H-pyrrolo[2,3-b]pyridin-4-yl)imidazo[1,2-b]pyridazine] | > 300 °C |
| C[C@@H]1CN(c2ccc3nc(-c4ccc(F)cc4)c(-c4ccnc5[nH]ccc45)n3n2)C[C@H](C)N1 [Compound 11, 6-[(cis)-3,5-Dimethylpiperazin-1-yl]-2-(4-fluorophenyl)-3-(1H-pyrrolo[2,3-b]pyridin-4-yl)imidazo[1,2-b]pyridazine] | 288 to 290 °C |
